Data published in ChEMBL document CHEMBL1201862, “PubChem BioAssay data set” (2004).
Structures can show the parent of a compound that is named as a salt. The source made the active and inactive calls.

Legend:
[1] = molecular target: Cytochrome P450 2C19 (Homo sapiens, UniProt P33261); assay: Cytochrome panel assay with activity outcomes. Panel member name: p450-cyp2c19 Compounds with AC50 equal or less than 10 uM are considered active; format: functional; settings: read-out: AC50
[2] = molecular target: Cytochrome P450 2D6 (Homo sapiens, UniProt P10635);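 note: CYP2D6 member of a cytochrome P450 panel assay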
Chain of Cytochrome P450 2D6 (P10635 whole entry): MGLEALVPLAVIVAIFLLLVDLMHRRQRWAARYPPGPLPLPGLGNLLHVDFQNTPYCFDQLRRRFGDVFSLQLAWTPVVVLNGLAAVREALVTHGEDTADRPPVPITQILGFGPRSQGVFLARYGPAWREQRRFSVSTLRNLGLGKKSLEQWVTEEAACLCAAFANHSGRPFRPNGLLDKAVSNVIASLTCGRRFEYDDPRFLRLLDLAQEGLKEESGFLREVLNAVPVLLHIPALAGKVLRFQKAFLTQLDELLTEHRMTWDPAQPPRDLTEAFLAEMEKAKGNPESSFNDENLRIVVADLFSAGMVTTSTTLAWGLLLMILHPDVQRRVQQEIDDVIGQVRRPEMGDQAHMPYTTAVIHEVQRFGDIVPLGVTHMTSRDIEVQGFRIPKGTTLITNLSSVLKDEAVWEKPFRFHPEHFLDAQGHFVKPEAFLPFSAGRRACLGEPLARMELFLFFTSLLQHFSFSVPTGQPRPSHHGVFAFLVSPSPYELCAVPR

[3] = molecular target: Cytochrome P450 3A4 (Homo sapiens, UniProt P08684);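 note: CYP3A4 tested as one member of a cytochrome P450 panel screen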
Chain of Cytochrome P450 3A4 (P08684 whole entry): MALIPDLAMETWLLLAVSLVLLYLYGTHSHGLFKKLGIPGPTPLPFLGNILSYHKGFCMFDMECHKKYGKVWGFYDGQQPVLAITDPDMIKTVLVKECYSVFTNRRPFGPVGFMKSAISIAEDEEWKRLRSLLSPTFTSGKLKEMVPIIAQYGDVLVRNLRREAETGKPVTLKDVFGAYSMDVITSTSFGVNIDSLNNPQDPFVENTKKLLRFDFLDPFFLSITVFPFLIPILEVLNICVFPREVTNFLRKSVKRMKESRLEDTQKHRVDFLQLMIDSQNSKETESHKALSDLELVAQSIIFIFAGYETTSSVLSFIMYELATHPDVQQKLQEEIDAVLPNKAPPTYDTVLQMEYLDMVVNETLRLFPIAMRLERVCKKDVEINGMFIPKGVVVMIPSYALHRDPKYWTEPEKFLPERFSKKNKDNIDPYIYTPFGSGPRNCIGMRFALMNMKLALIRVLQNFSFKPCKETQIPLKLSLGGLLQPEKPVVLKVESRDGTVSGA

[4] = system: INS1; assay: INS-1E survival protection against cytokine death – cell-based, luminescence, retest, dose response (AID 449756); format: functional; settings: Rattus norvegicus;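 note: cell death triggered by IL-1 beta plus TNF-alpha plus IFN-gamma mixture; protective hits raise ATP signal compared with cytokine alone wells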
[5] = system: H9c2; assay: cells; format: functional, cell-based; settings: Rattus norvegicus, H9c2, Myocardium;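 note: confirmatory concentration-response retest of ultra-high-throughput screening hits for modulation of myocardial damage; cell death induced by hydrogen peroxide oxidative stress; compound pretreatment for 60 min then peroxide exposure for 2 h; potency is for protecting the cells against peroxide damage rather than for killing them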
[6] = system: P388/ADR; assay: cells; format: functional; settings: Mus musculus
[7] = system: SN12K1; assay: cells; format: functional; settings: Homo sapiens
[8] = system: P388; assay: cells; format: functional; settings: Mus musculus
[9] = molecular target: T1, RNA-binding protein pos-1 (Caenorhabditis elegans, UniProt G5EF15); assay: disruptors of C. elegans POS-1 RNA interaction – biochemical, fluorescence polarization, dose response (AID 1964);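 note: purified POS-1 fused to maltose binding protein made in E. coli; potency of compounds blocking POS-1 binding to fluorescent RNA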
T1 sequence (G5EF15 whole entry): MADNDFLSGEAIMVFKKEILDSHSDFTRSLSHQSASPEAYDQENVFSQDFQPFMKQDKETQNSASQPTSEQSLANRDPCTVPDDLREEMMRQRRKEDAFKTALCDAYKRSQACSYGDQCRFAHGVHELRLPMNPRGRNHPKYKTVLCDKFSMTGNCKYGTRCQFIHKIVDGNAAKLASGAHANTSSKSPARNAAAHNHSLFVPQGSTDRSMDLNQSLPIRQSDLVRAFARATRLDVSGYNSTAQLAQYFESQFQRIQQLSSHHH

[10] = molecular target: Heat shock protein HSP 90-alpha (Homo sapiens, UniProt P07900); format: functional, organism-based
[11] = viability of uninfected HEp-2 cells – cell-based, HTS, cytotoxicity control for RSV inhibitor project, dose response (AID 2410); format: functional; settings: human respiratory syncytial virus
[12] = system: Streptococcus sp. 'group A'; assay: Streptococcus pyogenes SK(-)GAS viability under kanamycin – luminescence, BacTiterGlo, confirmation, counter-screen for streptokinase expression inhibitor project, dose response (AID 1900); format: functional, organism-based; settings: read-out: EC50
[13] = molecular target: T2, Streptokinase A (Streptococcus pyogenes serotype M1, UniProt P10520); assay: viability-normalized secreted streptokinase activity reduction – plasminogen activation absorbance, OD405, dose response (AID 1914); format: functional, Streptococcus pyogenes M1 GAS;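 note: secreted streptokinase activity via plasminogen activation per viability signal from cell pellet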
T2 sequence (P10520 whole entry): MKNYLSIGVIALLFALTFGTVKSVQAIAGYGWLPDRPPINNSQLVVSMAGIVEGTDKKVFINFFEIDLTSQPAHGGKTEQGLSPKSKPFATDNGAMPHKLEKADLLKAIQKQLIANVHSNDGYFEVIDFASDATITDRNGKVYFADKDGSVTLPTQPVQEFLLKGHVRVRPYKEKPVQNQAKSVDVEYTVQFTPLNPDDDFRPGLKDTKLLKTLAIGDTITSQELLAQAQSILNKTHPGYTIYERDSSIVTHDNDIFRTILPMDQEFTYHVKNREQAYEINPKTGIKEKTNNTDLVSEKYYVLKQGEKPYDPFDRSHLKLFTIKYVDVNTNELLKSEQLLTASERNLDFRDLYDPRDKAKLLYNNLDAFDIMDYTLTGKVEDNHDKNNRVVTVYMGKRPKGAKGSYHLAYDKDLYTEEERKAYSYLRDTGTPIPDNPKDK

[14] = system: Streptococcus; assay: GAS UMAA2166 growth inhibition – luminescence, BacTiterGlo, counter-screen for streptokinase expression inhibitor project, dose response (AID 1915); format: functional, organism-based;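 note: potency for reduction of bacterial viability or growth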
[15] = Trypanosoma cruzi growth suppression in host cells – NIH3T3 host cells, beta-gal luminescence, confirmation (AID 2044); format: functional, cell-based;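 note: intracellular parasites grown in NIH/3T3 mouse fibroblasts as host cells; luminescent beta-galactosidase reporter signal from transgenic T. cruzi replicating inside host cells; inhibitors lower the luminescence signal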
[16] = NIH3T3 cell viability loss – ATP luminescence, mouse fibroblasts, counter-screen, dose response (AID 2010); format: functional, cell-based;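 note: cells exposed to compound for about 90 hours before reading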
[17] = molecular target: Cytochrome P450 2C9 (Homo sapiens, UniProt P11712)
Chain of Cytochrome P450 2C9 (P11712 whole entry): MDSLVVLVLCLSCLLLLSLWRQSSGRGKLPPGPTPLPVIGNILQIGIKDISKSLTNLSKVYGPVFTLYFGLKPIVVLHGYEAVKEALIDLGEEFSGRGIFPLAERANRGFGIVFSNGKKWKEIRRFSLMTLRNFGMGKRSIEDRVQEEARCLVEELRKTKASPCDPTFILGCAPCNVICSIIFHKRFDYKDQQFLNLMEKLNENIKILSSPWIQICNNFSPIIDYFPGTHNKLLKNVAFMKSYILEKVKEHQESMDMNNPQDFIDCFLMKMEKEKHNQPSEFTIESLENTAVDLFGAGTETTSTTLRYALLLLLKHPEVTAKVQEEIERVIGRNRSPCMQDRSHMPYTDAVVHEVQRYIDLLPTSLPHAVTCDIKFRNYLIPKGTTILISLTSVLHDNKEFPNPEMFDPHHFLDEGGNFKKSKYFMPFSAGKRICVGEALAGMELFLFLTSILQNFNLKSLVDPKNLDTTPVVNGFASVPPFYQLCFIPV

[18] = molecular target: T3, Cytochrome P450 1A2 (Homo sapiens, UniProt P05177)
T3 sequence (P05177 whole entry): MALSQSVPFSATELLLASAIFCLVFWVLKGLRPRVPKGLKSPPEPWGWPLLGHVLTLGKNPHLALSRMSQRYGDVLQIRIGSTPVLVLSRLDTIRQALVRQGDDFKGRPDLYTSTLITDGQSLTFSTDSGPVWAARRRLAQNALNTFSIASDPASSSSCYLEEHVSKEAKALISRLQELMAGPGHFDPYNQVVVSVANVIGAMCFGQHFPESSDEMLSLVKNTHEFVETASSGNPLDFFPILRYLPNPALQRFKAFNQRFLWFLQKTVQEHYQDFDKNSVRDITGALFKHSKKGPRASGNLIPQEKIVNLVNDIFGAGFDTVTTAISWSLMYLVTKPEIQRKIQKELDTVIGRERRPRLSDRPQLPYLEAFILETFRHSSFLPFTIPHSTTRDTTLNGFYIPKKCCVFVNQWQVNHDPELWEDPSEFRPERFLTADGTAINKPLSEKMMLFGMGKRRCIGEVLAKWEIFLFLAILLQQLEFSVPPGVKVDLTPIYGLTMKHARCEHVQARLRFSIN

[19] = Luminescence Cell-Based Dose Confirmation HTS to Identify Activators of 5'UTR Stem-Loop Driven Alpha-Synuclein mRNA Translation in H4 Neuroglioblastoma Cells. [Related pubchem assays: 1829 (Project Summary), 1814 (Primary HTS)]; format: functional
[20] = Luminescence Cell-Based Dose Response HTS to Identify Activators of Luciferase Translation or Activity in H4 […] Cells. [Related pubchem assays: 1829 (Project Summary), 1814 (Primary HTS)]; format: functional
[21] = system: H4; assay: Luminescence Cell-Based Dose Response HTS to Identify Activators of 5'UTR Stem-Loop Driven Prion Protein mRNA Translation in H4 Neuroglioblastoma Cells. [Related pubchem assays: 1829 (Project Summary), 1814 (Primary HTS)]; format: functional; settings: Homo sapiens

Chain of Cytochrome P450 2C19 (P33261 whole entry): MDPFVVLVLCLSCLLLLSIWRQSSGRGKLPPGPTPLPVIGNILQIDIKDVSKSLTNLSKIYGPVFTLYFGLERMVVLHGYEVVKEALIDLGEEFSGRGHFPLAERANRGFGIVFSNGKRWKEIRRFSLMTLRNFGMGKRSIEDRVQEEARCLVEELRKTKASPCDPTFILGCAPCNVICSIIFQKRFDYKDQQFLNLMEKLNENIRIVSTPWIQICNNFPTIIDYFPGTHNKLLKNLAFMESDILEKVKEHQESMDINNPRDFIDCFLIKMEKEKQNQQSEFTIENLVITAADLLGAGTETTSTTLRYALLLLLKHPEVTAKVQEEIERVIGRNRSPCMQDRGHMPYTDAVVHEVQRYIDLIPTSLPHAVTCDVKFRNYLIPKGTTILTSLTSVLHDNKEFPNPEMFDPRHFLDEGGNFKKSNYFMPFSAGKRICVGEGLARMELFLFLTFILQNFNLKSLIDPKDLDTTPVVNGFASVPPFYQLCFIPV

CCCN1C(=O)C(NC(C)=O)c2cc(OC)ccc21 (stereo unspecified)
AC50 [1]: 22.4 µM (inconclusive) | AC50 [2]: 0.00562 µM (inconclusive) | AC50 [3]: 22.4 µM (inconclusive)

CCCCCCSc1ccc([C@H]2N[C@@](Cc3ccccc3)(C(=O)OC)[C@H]3C(=O)N(C)C(=O)[C@@H]23)cc1
AC50 [4]: 14.1 µM (active) | IC50 [5]: > 79 µM (inactive)

CC(C)NC(=O)OCc1c(COC(=O)NC(C)C)c(-c2ccc(Cl)c(Cl)c2)n2c1CCC2
GI50 [6]: > 100 µM (inactive) | GI50 [7]: > 100 µM (inactive) | GI50 [8]: > 100 µM (inactive)

CCOc1ccc(N2C(=O)/C(=C/c3ccco3)C(=O)NC2=S)cc1
EC50 [9]: 55.3 µM (active)

CN(C)c1nc(-c2cccc(NS(C)(=O)=O)c2)nc2ccccc12
AC50 [1]: 20 µM (inconclusive) | AC50 [2]: 25.1 µM (inconclusive)

COc1ccccc1CCn1c(=O)c(-c2ccc(F)c(F)c2)nc2cncnc21
AC50 [2]: 31.6 µM (inconclusive)

COc1ccc(-c2nn(-c3ccccc3)cc2C(=O)N2CCN(S(=O)(=O)c3cccc(F)c3)CC2)cc1
AC50 [10]: 2.04 µM (active)

COc1cccc(N2CC(C(=O)NCc3nnc(O)c4ccccc34)CC2=O)c1 (stereo unspecified)
IC50 [5]: > 79 µM (inactive)

Cc1cccc(C(=O)N/N=C2\CS(=O)(=O)N(C)c3ccsc32)c1
IC50 [5]: > 79 µM (inactive)

COc1ccc(N(C(=O)c2cccnc2)S(=O)(=O)c2cccs2)cc1
IC50 [5]: > 79 µM (inactive)

c1ccc(-c2ccc(N3CC[C@@]4(CCCNC4)C3)cc2)cc1
AC50 [1]: 20 µM (inconclusive) | AC50 [2]: 39.8 µM (inconclusive)

Cc1nc(O)nc(O)c1/C=C/C(=O)O
GI50 [6]: > 1000 µM (inactive) | GI50 [7]: > 1000 µM (inactive) | GI50 [8]: 631 µM (inactive)

CSc1nnc2c3cc(F)ccc3n(C)c2n1
CC50 [11]: 30 µM (active) | AC50 [10]: 5.56 µM (active)

CC(=O)c1ccc(-c2cnc3c(NC=O)cc(-c4ccc(C(=O)NC5CC5)cc4)cn23)cc1
IC50 [5]: > 79 µM (inactive)

Cc1ccc2nc(-c3ccc(NS(=O)(=O)c4ccc(F)cc4)cc3)sc2c1
EC50 [12]: 3.12 µM (active) | EC50 [13]: > 150 µM (not active) | EC50 [14]: 5.33 µM (active) | AC50 [10]: 4.57 µM (active)

COc1cc(/C=C/C(=O)Oc2ccccc2)ccc1C(=O)O/C=C/c1ccccc1
GI50 [6]: 0.83 µM (active) | GI50 [7]: > 100 µM (inactive) | GI50 [8]: 3.78 µM (inactive)

Nc1nncs1
GI50 [6]: 665 µM (inactive) | GI50 [7]: 2120 µM (inactive) | GI50 [8]: 711 µM (inactive)

CC[C@]1(O)C[C@H]2CN(CCc3c([nH]c4ccccc34)[C@@](C(=O)OC)(c3cc4c(cc3OC)N(C=O)[C@H]3[C@@](O)(C(=O)OC)[C@H](OC(C)=O)[C@]5(CC)C=CCN6CC[C@]43[C@@H]65)C2)C1 [VINCRISTINE SULFATE]
GI50 [6]: 0.171 µM (active) | GI50 [7]: 0.1 µM (active) | GI50 [8]: 0.1 µM (active)

O=C1c2ccccc2NC(c2c[nH]nc2-c2ccccc2)N1O (stereo unspecified)
IC50 [5]: 20.8 µM (active)

CCOC(=O)C1C(=O)NC(SCC(=O)OC)=C(C#N)C1c1ccccc1OCC (stereo unspecified)
IC50 [5]: 67.2 µM (inactive)

CC1C(=O)C(C)C(c2ccco2)N(N=O)C1c1ccco1 (stereo unspecified)
GI50 [6]: 63.4 µM (inactive) | GI50 [7]: > 100 µM (inactive) | GI50 [8]: > 100 µM (inactive)

O=C(Nc1cc(Cl)ccc1-n1cncn1)c1ccc([N+](=O)[O-])s1
EC50 [15]: 0.207 µM (active) | EC50 [16]: > 60 µM (not active) | AC50 [10]: 3.72 µM (active)

O=C(CCN1CCOCC1)/C(=C/c1ccccc1)c1ccccc1
GI50 [6]: 1.11 µM (active) | GI50 [7]: 3.03 µM (inactive) | GI50 [8]: 2.29 µM (inactive)

COc1ccc(/C=C2\N=C(c3c(-c4ccccc4)noc3C)OC2=O)cc1OC
AC50 [1]: 28.2 µM (inconclusive) | AC50 [2]: 20 µM (inconclusive) | AC50 [17]: 1 µM (inconclusive)

CCCc1cc2c(n1Cc1ccc(OC)cc1)C(C)C1CN(C(=O)c3ccccc3)C(C)(C(=O)OC)C21 (stereo unspecified)
AC50 [1]: 0.00631 µM (inconclusive) | AC50 [2]: 39.8 µM (inconclusive) | AC50 [18]: 15.8 µM (inconclusive)

COc1ccc(S(=O)(=O)N(C(=O)c2ccncc2)c2ccc(OC(=O)c3ccncc3)cc2)cc1
AC50 [10]: 1.65 µM (active)

CC(C)n1nnnc1SCC(=O)c1ccc2c(c1)OCCO2
EC50 [19]: 0.276 µM (active) | EC50 [20]: 0.624 µM (active) | EC50 [21]: > 120 µM (not active) | AC50 [2]: 14.1 µM (inconclusive) | AC50 [17]: 17.8 µM (inconclusive)

CC1CCCN(Cc2nc3c(c(=O)n(C)c(=O)n3C)n2CCCc2ccccc2)C1 (stereo unspecified)
IC50 [5]: 12.4 µM (active)

CC1=C2C(O)C(C(C)C(=O)N(C)C)CCC2(C)C=CC1=O (stereo unspecified)
GI50 [6]: > 100 µM (inactive) | GI50 [7]: > 100 µM (inactive) | GI50 [8]: > 100 µM (inactive)

CCCCCC(O)C1C(=O)OC(C)C(O)/C=C/C=C/C=C/C=C/C=C(\C)C(O)C(O)C(O)CC(O)CC(O)CC(O)CC(O)CC1O (stereo unspecified)
GI50 [6]: 1.95 µM (inactive) | GI50 [7]: 1.44 µM (inactive) | GI50 [8]: 0.904 µM (active)

Cc1cc(NC(=S)Nc2ccccc2)c(NC(=S)Nc2ccccc2)cc1C
GI50 [6]: 3.3 µM (inactive) | GI50 [7]: 18.5 µM (inactive) | GI50 [8]: 1.41 µM (inactive)

COC(=O)[C@@]1(Cc2ccccc2)[C@H]2c3cc(C(=O)N(C)C)n(Cc4cc(F)c(F)c(F)c4)c3C[C@H]2CN1C(=O)c1ccccc1
AC50 [2]: 25.1 µM (inconclusive)
